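48-hour exposure; five concentrations; linearly interpolated endpoints. TGI: concentration producing complete growth inhibition.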
Columns and labels:
Assay in all cases: NCI-60 cell line screen, 48 h
[1] = system: NCI-H522 lung
[2] = system: SK-MEL-2 melanoma
[3] = system: SNB-75 CNS
[4] = system: BT-549 breast
[5] = system: SNB-19 CNS
[6] = system: IGROV1 ovarian
[7] = system: MOLT-4 leukemia
[8] = system: HOP-92 NSCLC
[9] = system: CAKI-1 renal
[10] = system: PC-3 prostate

| Compound | TGI [1] | TGI [2] | TGI [3] | TGI [4] | TGI [5] | TGI [6] | TGI [7] | TGI [8] | TGI [9] | TGI [10] |
| --- | --- | --- | --- | --- | --- | --- | --- | --- | --- | --- |
| Cc1cc(NS(=O)(=O)c2ccc(Nc3c4ccccc4nc4c(C(=O)NC(CO)(CO)CO)cccc34)cc2)no1 | 34.4 µM | 48.5 µM | 55.1 µM | 98.9 µM | > 100 µM | > 100 µM | 49 µM | > 100 µM | > 100 µM | > 100 µM |
| O=C(NC1=C(Cl)C(=O)c2ccccc2C1=O)C(=O)c1c(O)c2ccccc2oc1=O | 16.1 µM | 10.3 µM | 25 µM | 14.6 µM | 16 µM | 16.1 µM | 18 µM | 32.3 µM | 22.6 µM | > 27.1 µM |
| Oc1c(NCn2nc(CCCCCCCCc3nn(CNc4ccc5ccccc5c4O)c(=S)o3)oc2=S)ccc2ccccc12 | > 100 µM | > 100 µM | > 100 µM | > 100 µM | > 100 µM | > 100 µM | > 100 µM | > 100 µM | > 100 µM | > 100 µM |
| Cc1c2oc(=O)c(C#N)cc2c2ccccn12 | – | > 100 µM | > 100 µM | > 100 µM | > 100 µM | > 100 µM | > 100 µM | > 100 µM | > 100 µM | > 100 µM |
| COc1ccc(Cn2c(=O)c(OS(=O)(=O)C(F)(F)F)c(C)c3cc4ccccc4cc32)cc1 | > 100 µM | > 100 µM | > 100 µM | > 100 µM | > 100 µM | > 100 µM | > 100 µM | – | > 100 µM | > 100 µM |
| CC1(C)CC(=O)C2=C(C1)NC(=S)C(C#N)C2c1ccccc1 (stereo not given) | > 100 µM | > 100 µM | > 100 µM | > 100 µM | > 100 µM | > 100 µM | – | > 100 µM | > 100 µM | > 100 µM |
| Cc1noc(-c2ccc(C(=O)O)[nH]2)c1Br | > 100 µM | > 100 µM | > 100 µM | > 100 µM | > 100 µM | > 100 µM | > 100 µM | 84.3 µM | > 100 µM | > 100 µM |
| COC(=O)[C@@H]1C=CCN1S(=O)(=O)c1ccc(C)cc1 | > 100 µM | > 100 µM | > 100 µM | > 100 µM | > 100 µM | > 100 µM | > 100 µM | > 100 µM | 57.8 µM | > 100 µM |
| C/C(=N\Nc1nc2cc(F)ccc2s1)c1ccccn1 | 2.62 µM | 7.33 µM | 4.68 µM | 5.84 µM | > 41.7 µM | – | > 100 µM | 11.5 µM | 5.67 µM | 10.4 µM |
| O=C(NNC(=O)c1ccc(Cl)cc1NC(=O)C12CC3CC(CC(C3)C1)C2)c1ccc(Cl)cc1 | 36 µM | – | – | > 100 µM | 39.4 µM | 32.7 µM | 60.6 µM | 51.9 µM | 73.6 µM | 82.4 µM |
| Oc1ccc(Nc2nc(Cl)c3[nH]cnc3n2)cc1 | > 100 µM | 87.3 µM | > 100 µM | > 100 µM | > 100 µM | > 100 µM | > 100 µM | 38.2 µM | > 100 µM | > 100 µM |
| COc1c(NC(C)=O)c2ccccc2c2ccccc12 | > 100 µM | > 100 µM | – | > 100 µM | > 100 µM | > 100 µM | > 100 µM | > 100 µM | – | > 100 µM |
| CC(=O)c1c(-c2ccco2)c(C#N)c(=S)n(C2OC(CO)C(O)C(O)C2O)c1C (stereo not given) | – | – | > 100 µM | > 100 µM | > 100 µM | > 100 µM | > 100 µM | – | > 100 µM | > 100 µM |
| COc1ccc(-c2nc(-c3cnccn3)n(C/C=C/c3ccccc3)n2)cc1 | > 100 µM | – | 51.7 µM | > 100 µM | > 100 µM | > 100 µM | > 100 µM | 37 µM | – | > 100 µM |
| C=C1c2nc3ccccc3n2C=C(c2ccccc2)N1c1ccc(C)cc1 | > 100 µM | > 100 µM | > 100 µM | > 100 µM | > 100 µM | > 100 µM | > 100 µM | > 100 µM | > 100 µM | > 100 µM |
| CC1=NN(c2ccccc2)C(=O)/C1=C\c1c(C)[nH]n(-c2ccccc2)c1=O | > 100 µM | > 100 µM | > 100 µM | > 100 µM | > 100 µM | > 100 µM | > 100 µM | 90.5 µM | > 100 µM | > 100 µM |
| Cc1oc(N)c(S(=O)(=O)/C(C#N)=C/c2ccccc2[N+](=O)[O-])c1C | 41 µM | > 100 µM | > 100 µM | 48.2 µM | 77.4 µM | > 100 µM | 62.5 µM | > 100 µM | 53.9 µM | 99 µM |
| C(=Nc1ccc(-c2nc3ccccc3s2)cc1)c1cccs1 | > 100 µM | > 100 µM | > 100 µM | > 100 µM | > 100 µM | > 100 µM | > 100 µM | 90.7 µM | > 100 µM | > 100 µM |
| O=C1CC(c2cccc([N+](=O)[O-])c2)C2(C(=O)NC(=S)NC2=O)C(c2cccc([N+](=O)[O-])c2)C1 (stereo not given) | 89.6 µM | > 100 µM | > 100 µM | 81.4 µM | 58.8 µM | > 100 µM | > 100 µM | > 100 µM | 64.3 µM | > 100 µM |
| CC(Cl)(CCC(Cl)C(C)(C)Cl)C(=O)CBr (stereo not given) | 3.94 µM | 30.3 µM | 26.5 µM | 27.3 µM | > 85.5 µM | 26.7 µM | 3.81 µM | 20.8 µM | 27.8 µM | 28.2 µM |
| CC(C)(C)c1cc(C(C)(C)C)c(SC2OC(CO)C(O)C(O)C2O)c(O)c1O (stereo not given) | 20.9 µM | 25 µM | 6.05 µM | 27 µM | 24.5 µM | 43.4 µM | > 100 µM | > 42.6 µM | > 84.9 µM | 28.3 µM |
| COc1cc(/C=C2\N=C(c3ccccc3)N(c3cc4cc(Sc5ccccc5)ccc4[nH]3)C2=O)ccc1O | > 50 µM | – | > 50 µM | > 50 µM | > 50 µM | > 50 µM | > 50 µM | > 50 µM | > 50 µM | – |
